Assay [1] in a line: Inhibition of CCPGCC hexapeptide insertion containing PTPalpha-406 mutant at 1 uM. The note with it: TDE = time-dependent effect.
A short description of assay [2]: Inhibition of CCPGCC hexapeptide insertion containing PTP1B-186 mutant.
Assay [3] in a line: Inhibition of CCPGCC hexapeptide insertion containing PTPalpha-406 mutant.
Assay [4] in a line: Inhibition of CCPGCC hexapeptide insertion containing PTP-PEST-204 mutant.
The nature of assay [5]: Inhibition of CCPGCC hexapeptide insertion containing PTPH1-816 mutant at 1 uM. The note with it: TDE = time-dependent effect.
Assay [6] is described as follows: Inhibition of CCPGCC hexapeptide insertion containing TCPTP-187 mutant.
Assay [7] can be described thus: Inhibition of CCPGCC hexapeptide insertion containing FAP1-2364 mutant.
The nature of assay [8]: Inhibition of CCPGCC hexapeptide insertion containing PTPH1-816 mutant.
The nature of assay [9]: Inhibition of CCPGCC hexapeptide insertion containing HePTP-211 mutant.

The structures appear in SMILES notation.

What is called Ki is a dissociation constant, usually derived from enzyme kinetics or from competition with a known ligand. A lower Ki goes with higher affinity. Turning to `O=C(O)c1ccccc1-c1c2ccc(=O)c([As]3SCCS3)c-2oc2c([As]3SCCS3)c(O)ccc12`, the Activity entry in assay [1] and in [5] was “tde” in each case. Further, the Ki in assay [2] was determined as 0.046 µM; in [3], 0.039 µM; in assay [4], 0.053 µM; in assay [6] it was 0.017 µM; in assay [7], 0.37 µM; in assay [8], 0.038 µM. For the same molecule, in [9], the Ki stood at 0.089 µM.

These data come from ChEMBL document CHEMBL1156728, “Allele-specific inhibition of divergent protein tyrosine phosphatases with a single small molecule” (Bioorg Med Chem, 2008).
